# Key:
# HCT-116 = HCT-116 (colon) cell-based MTT proliferation assay; details: Homo sapiens, HCT-116, 96 h, 4 days post addition of test compound, read-out: Antiproliferative Activity HCT 116 (colon) Assay IC50
# Description: The estrogen receptor negative epithelial breast carcinoma line (MDA-MB-435) was purchased from American Type Cell Culture Collection (ATCC; Rockville, Md.) and was grown in the medium recommended by ATCC. For analysis of the effect of the test compounds on growth of these cells, the cells were plated at 2000 cells per well in a 96-well tissue culture plate, and were incubated overnight at 37° C. with 5% CO2. The next day, the test compounds were dissolved in 100% dimethyl sulfoxide (DMSO) to yield a 10 mM stock solution. Each compound was diluted with sterile medium to 1 mM in a sufficient quantity to yield a final concentration of 120 μM. The compounds were then serially diluted in medium with 1.2% DMSO. One-fourth final volume of the diluted compounds was transferred to 96 well plates. Test compounds were assayed in duplicate. DMSO was added to a row of “control cells” such that the final concentration of DMSO in each well was 0.3%. Wells to which no cells were added served as the “blank.” Wells to which no inhibitor was added served as “no inhibitor control”. The plates were returned to the incubator, and 5 days post addition of test compound, were analyzed as described below.
# 3-(4,5-Dimethylthiazole-2-yl)-2,5-diphenyl-2H-tetrazolium bromide (thiazolyl blue; MTT) was added to each well to yield a final concentration of 1 mg/mL. The plates were then incubated at 37° C. for 3 hours. The plates were centrifuged at 1000 rpm for 5 minutes prior to aspiration of the MTT-containing medium. The MTT-containing medium was then removed and 100 μL 100% ethanol was added to each well to dissolve the resulting formazan metabolite. To ensure complete dissolution, plates were shaken for 15 minutes at room temperature. Absorbencies were read in a microtiter plate reader (Molecular Dynamics) at a wavelength of 570 nm with a 650 nm reference. Percent inhibition was calculated by subtracting the absorbance of the blank (no cell) wells from all wells, then subtracting the division of the average absorbance of each test duplicate by the average of the controls from 1.00. Inhibitory concentrations (IC50) were determined from the linear regression of a plot of the logarithm of the concentration versus the percent inhibition.
# The colon adenocarcinoma line SW480 and the colon carcinoma line HCT-116 also were obtained from the ATCC and were tested according to the same protocol provided above for MDA-MB-435 cell based assay with the following modifications. Cell line SW480 was plated at 1000 cells per well and analyzed at 6 days post addition of the test compound. Cell line HCT-116 was plated at 1000 cells per well and analyzed at 4 days post addition of test compound.
# H460a = H460a cell-based MTT proliferation assay; details: 120 h, 5 days post addition of test compound, read-out: Antiproliferative Activity H460a Assay IC90
# Description: The H460a cell line was purchased from (ATCC; Rockville, Md.) and was grown in the medium recommended by ATCC. For analysis of the effect of the test compounds on growth of these cells, the cells were plated at 150 cells per well in a 96-well tissue culture plate, and were incubated overnight at 37° C. with 5% CO2. The next day, the test compounds were dissolved in 100% dimethyl sulfoxide (DMSO) to yield a 10 mM stock solution. Each compound was diluted with sterile medium to 1 mM in a sufficient quantity to yield a final concentration of 120 μM. The compounds were then serially diluted in medium with 1.2% DMSO. One-fourth final volume of the diluted compounds was transferred to 96 well plates. Test compounds were assayed in duplicate. […] The plates were returned to the incubator, and 5 days post addition of test compound, were analyzed as described below. […] Absorbencies were read in a microtiter plate reader (Molecular Dynamics) at a wavelength of 570 nm with a 650 nm reference. Percent inhibition was calculated by subtracting the absorbance of the blank (no cell) wells from all wells, then subtracting the division of the average absorbance of each test duplicate by the average of the controls from 1.00. Inhibitory concentrations (IC50) were determined from the linear regression of a plot of the logarithm of the concentration versus the percent inhibition.
# FGFR = biological target: T1, FGFR; experiment: FGFR kinase HTRF assay; type: biochemical; details: 1.5 nM activated FGFR, 10 μM ATP; read-out: Inhibition of FGFR IC50
# T1 construct: fused on or other part: GST tag
# Description: To determine inhibition of KDR and FGFR, kinase assays were conducted using an HTRF (Homogeneous Time Resolved Fluorescence) assay. This assay is described in A. J. Kolb et. al., Drug Discovery Today, 1998, 3(7), p 333.
# FGFR activity assays were carried out as described above for the KDR activity assay with the following differences. GST-tagged FGFR enzyme was activated at room temperature for 1 hour in the following activation buffer: 100 mM HEPES, pH 7.4, 50 mM NaCl, 20 mM MgCl2, and 4 mM ATP. […] The rest of the assay was performed in the same manner as KDR assay.
# Compound IC50 values were determined from duplicate sets of data, and calculated by using Excel and fitting data to equation Y=[(a−b)/{1+(X/c)^d]+b, where a and b are enzyme activity in the presence of no test inhibitor compound and an infinite amount of inhibitor test compound, respectively, c is the IC50 and d is the hill constant of the compound response. The IC50 value is the concentration of test compound that reduces by 50% the enzyme activity under the test conditions described.
smiles,measurement,setting,value
"COc1cc2c(cc1F)C(c1ccccc1Cl)=Nc1c(n[nH]c1C)N2 [IVa, 5-(2-chlorophenyl)-1,2-dihydro-7-fluoro-8-methoxy-3-methyl-pyrazolo[3,4-b][1,4]benzodiazepine]",IC50,HCT-116,1040 nM
same,IC90,H460a,1570 nM
same,IC50,FGFR,28 nM

# Source: patent publication US7524840B2, “7,8-disubstituted pyrazolobenzodiazepines” (Hoffmann-La Roche Inc., priority 2004, dated 2009)
